This is an account of results in article PMC9295568, “Dual Inhibition of Vacuolar-ATPase and TMPRSS2 Is Required for Complete Blockade of SARS-CoV-2 Entry into Cells” (Antimicrobial Agents and Chemotherapy, 2022).

Counter-ions that a name gives are not always drawn. Like-named read-outs stand apart in the source and are kept apart here.

The test concerns endosomal acidification in Vero cells. Description: cells. The class given is cell-based. As to conditions: for inhibition at 40 µM: Chlorocebus sabaeus, read-out: Percent Inhibition (%) of endosomal acidification. On the procedure:
Inhibition of endosomal acidification was measured using LysoTracker Red DND-99 (ThermoFisher). […] Data were plotted using Prism 9 (GraphPad).

Setting [1] is: Vero cells, 40 μM, singlet (n=1).

Turning to `C=CC(C)(O)CCC=C(C)CCC=C(C)C` (mixture of isomers) [NEROLIDOL], the inhibition (as a rule, how much of the control response was suppressed) at 40 µM under setting [1] was determined as 66%.
Turning to `CCCCCCCCCc1ccc(O)cc1` [4-NONYLPHENOL], the inhibition at 40 µM under setting [1] was determined as 79%.
With `CC(C)c1ccc2c(c1)CC[C@H]1[C@](C)(CN)CCC[C@]21C` [18-AMINOABIETA-8,11,13-TRIENE SULFATE], under setting [1], the inhibition at 40 µM turned out to be 67%.
In the case of `CC(=O)c1ccc2c(c1)N(CCCN(C)C)c1ccccc1S2` [ACEPROMAZINE MALEATE], under setting [1], the inhibition at 40 µM is 67%.
Turning to `CC(=O)c1ccc2c(c1)N(CCCN1CCN(CCO)CC1)c1ccccc1S2.O=C(O)/C=C\C(=O)O.O=C(O)/C=C\C(=O)O` [ACETOPHENAZINE MALEATE], under setting [1], the “Percent Inhibition (%) of endosomal acidification” value (shortened to “Percent Inhibition (%)”) was found to be 62%.
Take `C[n+]1c2cc(N)ccc2cc2ccc(N)cc21.[Cl-]` [ACRIFLAVINIUM HYDROCHLORIDE]: under setting [1], the “Percent Inhibition (%)” value stood at 51%.
In the case of `CCCCCCc1ccc(O)cc1O.Nc1c2ccccc2nc2ccccc12` [ACRISORCIN], the “Percent Inhibition (%)” value under setting [1] is listed as 50%.
Same read-out and setting: then `CCCCCCCCCCCCCCCCC(C(=O)O)C(O)(CC(=O)O)C(=O)O` (stereo not drawn) [AGARIC ACID], with 89%.
In the case of `CCCCC(CC)CNC(=N)NC(=N)NCCCCCCNC(=N)NC(=N)NCC(CC)CCCC` (stereo not drawn) [ALEXIDINE HYDROCHLORIDE], under setting [1], the inhibition at 40 µM is 95%.
For the compound `Nc1c2ccccc2nc2ccccc12` [AMINACRINE], the inhibition at 40 µM under setting [1] turned out to be 69%.
Turning to `CN(C)CCC=C1c2ccccc2CCc2ccccc21` [AMITRIPTYLINE HYDROCHLORIDE], the inhibition at 40 µM under setting [1] came out at 53%.
`CCOC(=O)C1=C(COCCN)NC(C)=C(C(=O)OC)C1c1ccccc1Cl` (stereo not drawn) [AMLODIPINE BESYLATE]: under setting [1], the inhibition at 40 µM is 76%.
As to `C[C@@H]1[C@H](O)[C@@H](C)/C=C/C=C/C=C/C=C/C=C/C=C/C=C/[C@H](O[C@@H]2O[C@H](C)[C@@H](O)[C@H](N)[C@@H]2O)C[C@@H]2O[C@](O)(C[C@@H](O)C[C@@H](O)[C@H](O)CC[C@@H](O)C[C@@H](O)CC(=O)O[C@H]1C)C[C@H](O)[C@H]2C(=O)O` [AMPHOTERICIN B], under setting [1], the inhibition at 40 µM came out at 60%.
Take `COc1cc(NS(C)(=O)=O)ccc1Nc1c2ccccc2nc2ccccc12` [AMSACRINE]: the inhibition at 40 µM under setting [1] amounted to 87%.
The same measure, in the same setting: the value for `CC(=O)O[C@@H]1CC[C@@]2(C)[C@@H](CC[C@@H]3[C@@H]2CC[C@]2(C)C(=O)CC[C@@H]32)C1` [AN[…]] was 50%; that for `C[C@@H](O[C@H]1OCCN(Cc2n[nH]c(=O)[nH]2)[C@H]1c1ccc(F)cc1)c1cc(C(F)(F)F)cc(C(F)(F)F)c1` [APREPITANT] was 62%.
As to `CCCCC/C=C\C/C=C\C/C=C\C/C=C\CCCC(=O)O` [ARACHIDONIC ACID], under setting [1], the inhibition at 40 µM came out at 64%.
`COc1ccc(CCN2CCC(Nc3nc4ccccc4n3Cc3ccc(F)cc3)CC2)cc1` [ASTEMIZOLE]: the inhibition at 40 µM under setting [1] was 50%.
On the same count and under the same terms, the value for `CN1CCCC(n2nc(Cc3ccc(Cl)cc3)c3ccccc3c2=O)CC1` (stereo not drawn) [AZELASTINE HYDROCHLORIDE] was 59%.
Consider `Cc1c(-c2ccc(O)cc2)n(Cc2ccc(OCCN3CCCCCC3)cc2)c2ccc(O)cc12` [BAZEDOXIFENE ACETATE], for which the inhibition at 40 µM under setting [1] is 89%.
Turning to `CCOC(=O)[C@H](CCc1ccccc1)N[C@H]1CCc2ccccc2N(CC(=O)O)C1=O` [BENAZEPRIL HYDROCHLORIDE], under setting [1], the inhibition at 40 µM is 64%.
The same measure, in the same setting: the value for `CN1[C@@H]2CC[C@H]1C[C@@H](OC(c1ccccc1)c1ccccc1)C2` [BENZTROPINE MESYLATE] was 50%.
The same measure, in the same setting: the value for `CN(C)CCCOc1nn(Cc2ccccc2)c2ccccc12` [BENZYDAMINE HYDROCHLORIDE] was 58%; that for `CC(C)COCC(CN(Cc1ccccc1)c1ccccc1)N1CCCC1` (stereo not drawn) [BEPRIDIL HYDROCHLORIDE] was 71%.
Still for that read-out and setting: then `C=C(c1ccc(C(=O)O)cc1)c1cc2c(cc1C)C(C)(C)CCC2(C)C` [BEXAROTENE], with 64%; and `c1ccc(-c2ccc(C(c3ccccc3)n3ccnc3)cc2)cc1` (stereo not drawn) [BIFONAZOLE], with 50%; and `O=C(CCCN1CCC(O)(c2ccc(Br)cc2)CC1)c1ccc(F)cc1` [BROMPERIDOL], with 50%.
Regarding `C[C@@]12C(=O)OC(=O)[C@]1(C)[C@H]1CC[C@@H]2O1` [CANTHARIDIN], under setting [1], the inhibition at 40 µM was found to be 65%.
For `CC(C)NCC(O)COc1cccc2[nH]c3ccccc3c12` (stereo not drawn) [CARAZOLOL], the inhibition at 40 µM under setting [1] was determined as 54%.
As to `COc1ccccc1OCCNCC(O)COc1cccc2[nH]c3ccccc3c12` (stereo not drawn) [CARVEDILOL], the inhibition at 40 µM under setting [1] was determined as 55%.
Take `CC1=C(O)C(=O)C=C2C1=CC=C1[C@@]2(C)CC[C@@]2(C)[C@@H]3C[C@](C)(C(=O)O)CC[C@]3(C)CC[C@]12C` [CELASTROL]: the inhibition at 40 µM under setting [1] is 92%.
Regarding `CCCCCCCCCCCCCCCC[N+](C)(C)C` [CETRIMONIUM BROMIDE], the inhibition at 40 µM under setting [1] worked out at 79%.
In the case of `COc1cc(-c2ccc(/N=N/c3ccc4c(S(=O)(=O)O)cc(S(=O)(=O)O)c(N)c4c3O)c(OC)c2)ccc1/N=N/c1ccc2c(S(=O)(=O)O)cc(S(=O)(=O)O)c(N)c2c1O` [CHICAGO SKY BLUE], the inhibition at 40 µM under setting [1] is 54%.
Take `CN(C)CCCN1c2ccccc2Sc2ccc(Cl)cc21` [CHLORPROMAZINE]: under setting [1], the inhibition at 40 µM was 65%.
Same read-out and setting: the value for `CN(C)CC/C=C1/c2ccccc2Sc2ccc(Cl)cc21` [CHLORPROTHIXENE HYDROCHLORIDE] was 57%.
Turning to `C[C@@H](NCCCc1cccc(C(F)(F)F)c1)c1cccc2ccccc12` [CINACALCET HYDROCHLORIDE], the inhibition at 40 µM under setting [1] worked out at 91%.
For `CC(C)/N=c1\cc2n(-c3ccc(Cl)cc3)c3ccccc3nc-2cc1Nc1ccc(Cl)cc1` [CLOFAZIMINE], the inhibition at 40 µM under setting [1] was 80%.
Consider `CCN(CC)CCOc1ccc(C(=C(Cl)c2ccccc2)c2ccccc2)cc1` [CLOMIPHENE CITRATE], for which the inhibition at 40 µM under setting [1] amounted to 69%.
As to `CN(C)CCCN1c2ccccc2CCc2ccc(Cl)cc21` [CLOMIPRAMINE HYDROCHLORIDE], under setting [1], the inhibition at 40 µM came to 83%.
As for `Cc1cc(C(C#N)c2ccc(Cl)cc2)c(Cl)cc1NC(=O)c1cc(I)cc(I)c1O` (stereo not drawn) [CLOSANTEL], under setting [1], the inhibition at 40 µM turned out to be 56%.
Still for that read-out and setting: then `CC1CC(OC(=O)C(O)c2ccccc2)CC(C)(C)C1` (stereo not drawn) [CYCLANDELATE], with 52%; and `CN1CCC(=C2c3ccccc3C=Cc3ccccc32)CC1` [CYPROHEPTADINE HYDROCHLORIDE], with 67%.
For `CCCCCCCCCCCCCCCC[N+](C)(C)Cc1ccccc1` [C[…]], the inhibition at 40 µM under setting [1] was 90%.
Take `C=CC(C1=CC(=O)C=CC1=O)c1ccccc1` (stereo not drawn) [DALBERGIONE]: the inhibition at 40 µM under setting [1] is 85%.
For `CN(C)[C@@H](CCOc1cccc2ccccc12)c1ccccc1` [DAPOXETINE HYDROCHLORIDE], the inhibition at 40 µM under setting [1] came out at 91%.
Still for that read-out and setting: the value for `CNCCCN1c2ccccc2CCc2ccccc21` [DESIPRAMINE HYDROCHLORIDE] was 50%; that for `Oc1ccc(Cl)cc1Cc1cc(Cl)ccc1O` [DICHLOROPHEN] was 86%; that for `C[C@@H]1CC[C@@]2(OC1)O[C@H]1[C@@H](O)[C@H]3[C@@H]4CC[C@H]5C[C@@H](O[C@@H]6O[C@H](CO)[C@H](O[C@@H]7O[C@H](CO)[C@@H](O)[C@H](O[C@@H]8OC[C@@H](O)[C@H](O)[C@H]8O)[C@H]7O[C@@H]7O[C@H](CO)[C@H](O)[C@H](O[C@@H]8O[C@H](CO)[C@@H](O)[C@H](O)[C@H]8O)[C@H]7O)[C@H](O)[C@H]6O)[C@H](O)C[C@]5(C)[C@H]4CC[C@]3(C)[C@H]1[C@@H]2C` [DIGITONIN] was 79%.
Turning to `Cc1c(O)c(O)cc2c1CC=C1[C@@]2(C)CC[C@@]2(C)[C@@H]3C[C@](C)(C(=O)O)CC[C@]3(C)CC[C@]12C` [DIHYDROCELASTROL], under setting [1], the inhibition at 40 µM was 96%.
With `O=C(Nc1ccccc1)OCC(CN1CCCCC1)OC(=O)Nc1ccccc1` (stereo not drawn) [DIPERODON HYDROCHLORIDE], under setting [1], the inhibition at 40 µM was 54%.
Regarding `CCN(CC)CCOC(=O)C(c1ccccc1)C1CCCCC1` (stereo not drawn) [DROFENINE HYDROCHLORIDE], the inhibition at 40 µM under setting [1] turned out to be 58%.
Turning to `CCCCc1oc2ccc(NS(C)(=O)=O)cc2c1C(=O)c1ccc(OCCCN(CCCC)CCCC)cc1` [DRONEDARONE HYDROCHLORIDE], under setting [1], the inhibition at 40 µM worked out at 85%.
As to `CNCC[C@H](Oc1cccc2ccccc12)c1cccs1` [DULOXETINE HYDROCHLORIDE], the inhibition at 40 µM (Vero) is 59%.
For `Clc1ccc(COC(Cn2ccnc2)c2ccc(Cl)cc2Cl)cc1` (stereo not drawn) [ECONAZOLE NITRATE], under setting [1], the inhibition at 40 µM stood at 76%.
For the compound `CCN(CC)C(C)CN1c2ccccc2Sc2ccccc21` (stereo not drawn) [ETHOPROPAZINE HYDROCHLORIDE], the inhibition at 40 µM under setting [1] was 70%.
Consider `CC(C)=CCC/C(C)=C/CC/C(C)=C/CO` [FARNESOL], for which the inhibition at 40 µM under setting [1] came out at 76%.
In the case of `CC(NCCC(c1ccccc1)c1ccccc1)c1ccccc1` (stereo not drawn) [FENDILINE HYDROCHLORIDE], the inhibition at 40 µM under setting [1] is 73%.
As to `CNCCC(Oc1ccc(C(F)(F)F)cc1)c1ccccc1` (stereo not drawn) [FLUOXETINE], under setting [1], the inhibition at 40 µM stood at 67%.
`OCCN1CCN(CCCN2c3ccccc3Sc3ccc(C(F)(F)F)cc32)CC1` [FLUPHENAZINE HYDROCHLORIDE]: under setting [1], the inhibition at 40 µM was determined as 78%.
In the case of `CC(C)=CCC[C@]1(C)C=Cc2c(O)c3c(c(CC=C(C)C)c2O1)O[C@]12C(=C[C@@H]4C[C@H]1C(C)(C)O[C@@]2(C/C=C(/C)C(=O)O)C4=O)C3=O` [GAMBOGIC ACID], under setting [1], the inhibition at 40 µM is 90%.
On the same count and under the same terms, the value for `CN(C)c1ccc(C(=C2C=CC(=[N+](C)C)C=C2)c2ccc(N(C)C)cc2)cc1` [GENTIAN VIOLET] was 95%; that for `Cc1cc2c(C(C)C)c(O)c(O)c(C=O)c2c(O)c1-c1c(C)cc2c(C(C)C)c(O)c(O)c(C=O)c2c1O` [GOSSYPOL] was 80%.
Consider `Cc1ccc(C(C)C)cc2c(C)ccc1-2` [GUAIAZULENE], for which the inhibition at 40 µM under setting [1] amounted to 64%.
Consider `CCCCC(CC)CN1CN(CC(CC)CCCC)CC(C)(N)C1` (stereo not drawn) [HEXETIDINE], for which the inhibition at 40 µM under setting [1] worked out at 84%.
`CCN(CC)CCNc1ccc(CO)c2sc3ccccc3c(=O)c12` [HYCANTHONE]: the inhibition at 40 µM under setting [1] amounted to 69%.
Regarding `COC1=C(OC)C(=O)C(CCCCCCCCCCO)=C(C)C1=O` [IDEBENONE], the inhibition at 40 µM under setting [1] turned out to be 63%.
